PubChem BioAssay AID1963983 (Molecular Pharmacology Branch, DTP, NCI, 2024)

System: 186277-243-T-J2-PDC multi-cell spheroid viability
Experiment: Anticancer human tumor 186277-243-T-J2-PDC patient-derived colon adenocarcinoma cell line growth inhibition [PI3K]
Details: for IC50: curve of first compound; for viability, T/C: stronger effect = lower value; active = viability on the fitted dose curve at most 10% of control; inactive = the rest
In short: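 High-throughput combination screen: PI3K inhibitors crossed with targeted small molecules on complex spheroids of tumor cells, HUVEC and MSCs at 37 degrees C, 5% CO2. Top concentration was at or near clinical Cmax (otherwise 10 microM), with half-log decrements.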

[1] = second compound 0.0316 µM, first compound 0.0316 µM
[2] = second compound 0.0316 µM, first compound 0.1 µM
[3] = second compound 0.0316 µM, first compound 0.316 µM
[4] = second compound 0.0316 µM, first compound 1 µM
[5] = second compound 0.0316 µM, first compound 3.16 µM
[6] = second compound 0.0316 µM, first compound 10 µM
[7] = second compound 0.1 µM, first compound 0.0316 µM
[8] = second compound 0.1 µM, first compound 0.1 µM
[9] = second compound 0.1 µM, first compound 0.316 µM
[10] = second compound 0.1 µM, first compound 1 µM
[11] = second compound 0.1 µM, first compound 3.16 µM
[12] = second compound 0.1 µM, first compound 10 µM
[13] = second compound 0.316 µM, first compound 0.0316 µM
[14] = second compound 0.316 µM, first compound 0.1 µM
[15] = second compound 0.316 µM, first compound 0.316 µM
[16] = second compound 0.316 µM, first compound 1 µM
[17] = second compound 0.316 µM, first compound 3.16 µM
[18] = second compound 0.316 µM, first compound 10 µM
[19] = second compound 1 µM, first compound 0.0316 µM
[20] = second compound 1 µM, first compound 0.1 µM
[21] = second compound 1 µM, first compound 0.316 µM
[22] = second compound 1 µM, first compound 1 µM
[23] = second compound 1 µM, first compound 3.16 µM
[24] = second compound 1 µM, first compound 10 µM
[25] = second compound 3.16 µM, first compound 0.0316 µM
[26] = second compound 3.16 µM, first compound 0.1 µM
[27] = second compound 3.16 µM, first compound 0.316 µM
[28] = second compound 3.16 µM, first compound 1 µM
[29] = second compound 3.16 µM, first compound 3.16 µM
[30] = second compound 3.16 µM, first compound 10 µM
[31] = second compound 10 µM, first compound 0.0316 µM
[32] = second compound 10 µM, first compound 0.1 µM
[33] = second compound 10 µM, first compound 0.316 µM
[34] = second compound 10 µM, first compound 1 µM
[35] = second compound 10 µM, first compound 3.16 µM
[36] = second compound 10 µM, first compound 10 µM
[37] = second compound 0.00316 µM, first compound 0.0316 µM
[38] = second compound 0.00316 µM, first compound 0.1 µM
[39] = second compound 0.00316 µM, first compound 0.316 µM
[40] = second compound 0.00316 µM, first compound 1 µM
[41] = second compound 0.00316 µM, first compound 3.16 µM
[42] = second compound 0.00316 µM, first compound 10 µM
[43] = second compound 0.01 µM, first compound 0.0316 µM
[44] = second compound 0.01 µM, first compound 0.1 µM
[45] = second compound 0.01 µM, first compound 0.316 µM
[46] = second compound 0.01 µM, first compound 1 µM
[47] = second compound 0.01 µM, first compound 3.16 µM
[48] = second compound 0.01 µM, first compound 10 µM
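Note: spheroids exposed to compounds for seven days before viability reading.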
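Throughout, for viability, T/C: 100% = DMSO vehicle control viability.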

CC(C)NCC(C(=O)N1CCN(c2ncnc3c2C(C)CC3O)CC1)c1ccc(Cl)cc1 (stereo not given) + CC(Nc1ncnc2nc[nH]c12)c1cc2cccc(Cl)c2c(=O)n1-c1ccccc1
1060 nM: IC50 (second compound 0.1 µM)
815 nM: IC50 (second compound 1 µM)
inactive: viability, T/C [1] 90.7% | viability, T/C [2] 78.6% | viability, T/C [3] 80.1% | viability, T/C [4] 60.4% | viability, T/C [5] 45.4% | viability, T/C [6] 31.2% | viability, T/C [7] 82.5% | viability, T/C [8] 94% | viability, T/C [9] 70.5% | viability, T/C [10] 50% | viability, T/C [11] 40.1% | viability, T/C [12] 28.2% | viability, T/C [13] 85.6% | viability, T/C [14] 92.2% | viability, T/C [15] 68.8% | viability, T/C [16] 48.9% | viability, T/C [17] 42.5% | viability, T/C [18] 26.3% | viability, T/C [19] 96.7% | viability, T/C [20] 77.5% | viability, T/C [21] 63.8% | viability, T/C [22] 49.6% | viability, T/C [23] 30% | viability, T/C [24] 23% | viability, T/C [25] 96.5% | viability, T/C [26] 92.8% | viability, T/C [27] 58.7% | viability, T/C [28] 36.8% | viability, T/C [29] 30.9% | viability, T/C [30] 17.6% | viability, T/C [31] 77.3% | viability, T/C [32] 78.8% | viability, T/C [33] 54.2% | viability, T/C [34] 36.3% | viability, T/C [35] 21.4% | viability, T/C [36] 14.4%
466 nM: IC50 (second compound 10 µM)
1110 nM: IC50 (second compound 0.316 µM)
539 nM: IC50 (second compound 3.16 µM)
2280 nM: IC50 (second compound 0.0316 µM)

Cn1ncc(Cl)c1-c1cc(C(=O)NC(CN)Cc2cccc(F)c2)sc1Cl (stereo not given) + CC(Nc1ncnc2nc[nH]c12)c1cc2cccc(Cl)c2c(=O)n1-c1ccccc1
inactive: viability, T/C [1] 82.5% | viability, T/C [2] 83.6% | viability, T/C [3] 55.5% | viability, T/C [4] 56.8% | viability, T/C [5] 46.1% | viability, T/C [6] 15.4% | viability, T/C [7] 84.1% | viability, T/C [8] 90.4% | viability, T/C [9] 54.2% | viability, T/C [10] 56.1% | viability, T/C [11] 44.3% | viability, T/C [12] 17.5% | viability, T/C [13] 99.9% | viability, T/C [14] 86.9% | viability, T/C [15] 60.9% | viability, T/C [16] 48.8% | viability, T/C [17] 44.6% | viability, T/C [18] 16.1% | viability, T/C [19] 97.4% | viability, T/C [20] 78.3% | viability, T/C [21] 48% | viability, T/C [22] 43.1% | viability, T/C [23] 37.1% | viability, T/C [24] 13.1% | viability, T/C [25] 83.8% | viability, T/C [26] 70.6% | viability, T/C [27] 45% | viability, T/C [28] 31.8% | viability, T/C [29] 25.6% | viability, T/C [31] 85.1% | viability, T/C [32] 60.3% | viability, T/C [33] 39.3% | viability, T/C [34] 25% | viability, T/C [35] 18.7%
1080 nM: IC50 (second compound 0.316 µM)
1500 nM: IC50 (second compound 0.0316 µM)
active: viability, T/C [30] 5.44% | viability, T/C [36] 3.49%
516 nM: IC50 (second compound 1 µM)
182 nM: IC50 (second compound 10 µM)
304 nM: IC50 (second compound 3.16 µM)
1330 nM: IC50 (second compound 0.1 µM)

CC1(C)CCC(CN2CCN(c3ccc(C(=O)NS(=O)(=O)c4ccc(NCC5CCOCC5)c([N+](=O)[O-])c4)c(Oc4cnc5[nH]ccc5c4)c3)CC2)=C(c2ccc(Cl)cc2)C1 + CC(Nc1ncnc2nc[nH]c12)c1cc2cccc(Cl)c2c(=O)n1-c1ccccc1
5170 nM: IC50 (second compound 3.16 µM)
4860 nM: IC50 (second compound 0.0316 µM)
inactive: viability, T/C [1] 96.6% | viability, T/C [2] 96.2% | viability, T/C [3] 95% | viability, T/C [4] 105% | viability, T/C [5] 77.3% | viability, T/C [7] 99.5% | viability, T/C [8] 116% | viability, T/C [9] 96.7% | viability, T/C [10] 92.2% | viability, T/C [11] 70.5% | viability, T/C [13] 97% | viability, T/C [14] 108% | viability, T/C [15] 91.8% | viability, T/C [16] 98.6% | viability, T/C [17] 92.1% | viability, T/C [19] 105% | viability, T/C [20] 116% | viability, T/C [21] 102% | viability, T/C [22] 112% | viability, T/C [23] 77% | viability, T/C [25] 112% | viability, T/C [26] 115% | viability, T/C [27] 106% | viability, T/C [28] 103% | viability, T/C [29] 85.9% | viability, T/C [31] 97% | viability, T/C [32] 96.1% | viability, T/C [33] 97.2% | viability, T/C [34] 95.5% | viability, T/C [35] 74.7%
4840 nM: IC50 (second compound 1 µM)
active: viability, T/C [6] 4.52% | viability, T/C [12] 4.02% | viability, T/C [18] 8% | viability, T/C [24] 4.04% | viability, T/C [30] 3.14% | viability, T/C [36] 2.09%
4670 nM: IC50 (second compound 10 µM)
4450 nM: IC50 (second compound 0.1 µM)
5630 nM: IC50 (second compound 0.316 µM)

C#Cc1c(F)ccc2cc(O)cc(-c3ncc4c(N5CC6CCC(C5)N6)nc(OCC56CCCN5CC(F)C6)nc4c3F)c12 (stereo not given) + CC(Nc1ccc2c(c1)OCCn1cc(N3C(=O)OCC3C(F)F)nc1-2)C(N)=O
inactive: viability, T/C [37] 73.4% | viability, T/C [38] 31.6% | viability, T/C [39] 16.4% | viability, T/C [40] 16.3% | viability, T/C [41] 12.6% | viability, T/C [42] 8.99% | viability, T/C [43] 72.2% | viability, T/C [44] 31.1% | viability, T/C [45] 15.8% | viability, T/C [46] 11.8% | viability, T/C [47] 14% | viability, T/C [48] 9.85% | viability, T/C [1] 48.9% | viability, T/C [2] 23.6% | viability, T/C [3] 13.1% | viability, T/C [4] 14.6% | viability, T/C [7] 24.8% | viability, T/C [8] 9.05% | viability, T/C [13] 10.9% | viability, T/C [19] 15.1%
60.3 nM: IC50 (second compound 0.00316 µM)
active: viability, T/C [5] 7.53% | viability, T/C [6] 7.66% | viability, T/C [9] 12.4% | viability, T/C [10] 7.52% | viability, T/C [11] 6.59% | viability, T/C [12] 4.7% | viability, T/C [14] 7.34% | viability, T/C [15] 4.32% | viability, T/C [16] 4.02% | viability, T/C [17] 4.87% | viability, T/C [18] 2.61% | viability, T/C [20] 8.27% | viability, T/C [21] 6.04% | viability, T/C [22] 3.18% | viability, T/C [23] 3.45% | viability, T/C [24] 1.57%
< 31.6 nM: IC50 (second compound 0.0316 µM) | IC50 (second compound 0.1 µM) | IC50 (second compound 0.316 µM) | IC50 (second compound 1 µM)
58.9 nM: IC50 (second compound 0.01 µM)

Cn1nccc1Nc1nccc(-c2ccn(C(CO)c3ccc(Cl)c(F)c3)c(=O)c2)n1 (stereo not given) + COc1c(OCCCN2CCOCC2)ccc2c3n(c(=NC(=O)c4cnc(N)nc4)nc12)CCN3
502 nM: IC50 (second compound 0.01 µM)
inactive: viability, T/C [37] 109% | viability, T/C [38] 107% | viability, T/C [39] 89.2% | viability, T/C [40] 51.6% | viability, T/C [41] 24.3% | viability, T/C [42] 15.1% | viability, T/C [43] 86.3% | viability, T/C [44] 94.6% | viability, T/C [45] 57.7% | viability, T/C [46] 32.6% | viability, T/C [47] 14.7% | viability, T/C [1] 47.2% | viability, T/C [2] 34.6% | viability, T/C [3] 18.4% | viability, T/C [4] 10.2% | viability, T/C [7] 9.72%
1080 nM: IC50 (second compound 0.00316 µM)
active: viability, T/C [48] 5.46% | viability, T/C [5] 6.79% | viability, T/C [6] 8.22% | viability, T/C [8] 8.17% | viability, T/C [9] 6.57% | viability, T/C [10] 2.91% | viability, T/C [11] 2.2% | viability, T/C [12] 1.76% | viability, T/C [13] 3.78% | viability, T/C [14] 6.01% | viability, T/C [15] 1.78% | viability, T/C [16] 1.08% | viability, T/C [17] 1.43% | viability, T/C [18] 0.17% | viability, T/C [19] 2.33% | viability, T/C [20] 2.25% | viability, T/C [21] 0.33% | viability, T/C [22] 0.28% | viability, T/C [23] 0.15% | viability, T/C [24] 0.27%
< 31.6 nM: IC50 (second compound 0.0316 µM) | IC50 (second compound 0.1 µM) | IC50 (second compound 0.316 µM) | IC50 (second compound 1 µM)
